Experiments:
mice treated with MPTP = details: cited from earlier work
brain of gerbils = details: systemic administration; cited from earlier work
[1] = cited from earlier work
brain of rats = details: systemic administration; cited from earlier work
[2] = test system: alpha-synuclein overexpressing mice; details: mouse, in vivo; cited from earlier work
[3] = intravenous administration, clinical experiments; cited from earlier work
cells = details: cited from earlier work
system xc− = biological target: T1, system xc− (Homo sapiens, UniProt Q9UPY5); assay: in vitro screening assay of system xc− (14C-cystine uptake, 3H-glutamate) in 1321N1 cells; type: cell-based; details: human glial cells from brain astrocytoma (1321N1)
T1 construct: a cell line with high system xc− expression; endogenous in cells; host or cells: 1321N1 human astrocytoma cells
T1 sequence (Q9UPY5 1-501): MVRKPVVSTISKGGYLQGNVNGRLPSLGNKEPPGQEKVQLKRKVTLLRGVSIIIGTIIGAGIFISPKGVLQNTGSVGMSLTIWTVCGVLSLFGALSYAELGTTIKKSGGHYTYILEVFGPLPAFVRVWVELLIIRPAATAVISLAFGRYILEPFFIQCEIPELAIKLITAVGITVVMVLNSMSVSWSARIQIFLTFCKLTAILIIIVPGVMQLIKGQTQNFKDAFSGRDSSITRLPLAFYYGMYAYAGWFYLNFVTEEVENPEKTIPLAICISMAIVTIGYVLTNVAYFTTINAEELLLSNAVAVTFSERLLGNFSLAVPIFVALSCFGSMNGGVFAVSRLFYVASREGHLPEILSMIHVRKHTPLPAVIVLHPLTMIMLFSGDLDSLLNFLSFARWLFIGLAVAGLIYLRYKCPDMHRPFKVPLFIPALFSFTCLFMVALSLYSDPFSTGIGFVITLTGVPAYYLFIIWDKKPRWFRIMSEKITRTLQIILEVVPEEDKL
T1 sequence (P08195 1-529 partner): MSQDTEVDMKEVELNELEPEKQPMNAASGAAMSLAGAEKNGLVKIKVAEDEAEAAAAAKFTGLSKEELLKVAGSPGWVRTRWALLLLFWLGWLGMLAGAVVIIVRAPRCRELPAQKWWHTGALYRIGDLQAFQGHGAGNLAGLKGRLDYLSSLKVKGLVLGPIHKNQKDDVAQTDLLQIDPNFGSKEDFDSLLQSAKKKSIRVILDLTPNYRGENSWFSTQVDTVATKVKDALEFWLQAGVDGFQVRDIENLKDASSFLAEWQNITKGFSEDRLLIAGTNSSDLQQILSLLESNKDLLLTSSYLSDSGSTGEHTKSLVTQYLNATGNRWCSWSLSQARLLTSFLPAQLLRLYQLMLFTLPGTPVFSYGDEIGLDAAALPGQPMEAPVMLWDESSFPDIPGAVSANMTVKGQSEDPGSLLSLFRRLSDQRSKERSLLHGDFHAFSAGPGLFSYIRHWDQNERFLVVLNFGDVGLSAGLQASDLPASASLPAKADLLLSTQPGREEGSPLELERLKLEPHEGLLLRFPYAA
Description: Using an in vitro screening assay conducted in human glial cells from brain astrocytoma (1321N1), a cell line with high system xc− expression, the compound with the following formula: […]

[4] = pre-pulse inhibition (PPI) model of antipsychotic-like activity; type: in vivo; details: orally-active
[5] = elevated plus maze (EPM) model of anxiolytic-like activity; type: in vivo; details: orally-active

## CC(=O)N[C@@H](CS)C(=O)O [NAC, N-acetylcysteine]
Mice treated with MPTP; Aoyama et al., 2008, Perry et al., 1985
  neuroprotective effect in different MPTP mouse models: partial neuroprotective effect
Mice treated with MPTP; mouse, in vivo
  therapeutic potential in MPTP-treated mice: exhibited therapeutic potential
Brain of gerbils
  protection against oxidative stress in the brain: provides protection against oxidative stress
[1]
  solubility characteristics: poor
Brain of rats
  protection against oxidative stress in the brain: provides protection against oxidative stress
[2]
  therapeutic potential in alpha-synuclein overexpressing mice: exhibited therapeutic potential

## N[C@@H](CCC(=O)N[C@@H](CS)C(=O)NCC(=O)O)C(=O)O [glutathione]
[1]
  solubility characteristics: poor
[3]
  reduction of motor impairment and disability: 40%

## CC(=O)N[C@H](CS)C(N)=O
cells
  protection of cells from neurotoxicity induced by rotenone: protected cells from neurotoxicity

## O=C(Cc1ccccc1)N[C@@H](CSC(c1ccccc1)(c1ccccc1)c1ccccc1)C(=O)O
System xc−
  3H-glutamate (glutamate release): significant elevations
  uptake of 14C-cystine: robust and significant decrease
[4]
  behavioral effects in PPI model: significant behavioral effects
[5]
  behavioral effects in EPM model: significant behavioral effects

Source: patent publication US20130338165A1 (Promentis Pharmaceuticals, Inc., priority 2012, published 2013)
